In PubChem BioAssay (NCI):
Where “and” joins values, the source holds several entries; their conditions need not be identical. Equal values may be shown once.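 The compound was tested at five concentrations on cells cultured in 96-well plates, with a 48-hour exposure period. At the GI50, growth is halved. At the TGI there is no net growth.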

Tests used:
Assay in all cases: NCI-60 cell line screen, 48 h
A549 NSCLC = test system: A549 NSCLC
HL-60(TB) leukemia = test system: HL-60(TB) leukemia
MOLT-4 leukemia = test system: MOLT-4 leukemia
OVCAR-8 ovarian = test system: OVCAR-8 ovarian
ACHN renal = test system: ACHN renal
RXF 393 renal = test system: RXF 393 renal
HCT-15 colon = test system: HCT-15 colon
SF-268 CNS = test system: SF-268 CNS
EKVX NSCLC = test system: EKVX NSCLC

SMILES | GI50 (A549 NSCLC) [µM] | TGI (A549 NSCLC) | GI50 (HL-60(TB) leukemia) [µM] | TGI (HL-60(TB) leukemia) [µM] | GI50 (MOLT-4 leukemia) [µM] | TGI (MOLT-4 leukemia) | GI50 (OVCAR-8 ovarian) [µM] | TGI (OVCAR-8 ovarian) | GI50 (ACHN renal) [µM] | TGI (ACHN renal) | GI50 (RXF 393 renal) [µM] | TGI (RXF 393 renal) | GI50 (HCT-15 colon) [µM] | TGI (HCT-15 colon) | GI50 (SF-268 CNS) [µM] | TGI (SF-268 CNS) | GI50 (EKVX NSCLC) [µM] | TGI (EKVX NSCLC)
CS(=O)(=O)CCNCc1ccc(-c2ccc3ncnc(Nc4ccc(OCc5ccccc5)cc4)c3c2)o1 | 5.19 | > 25 µM | 6.4 | 14 | 9.31 | > 25 µM | 8.73 | > 25 µM | 1.28 | > 25 µM | 4.12 | 10.1 µM | 4.13 | 13.4 µM | 9.14 | > 25 µM | 0.371 | 24.7 µM
O=C1C(Cl)=C(NCCN2CCOCC2)C(=O)c2ncccc21 | – | 4.18 µM and 3.87 µM | 1.43 | 4.44 | 2.24 | 4.01 µM and 5.27 µM | – | 3.79 µM and 3.29 µM | 1.45 | 7.29 µM and 2.91 µM | 1.66 | 3.38 µM and 3.06 µM | 1.68 | 4.17 µM and 3.62 µM | 3.8 | 4.27 µM and 15.5 µM | – | 3.41 µM and 3.6 µM
O=c1cc(-c2ccccc2)oc2cc(OC/C(=N/O)c3ccccc3)ccc12 | 31.7 | > 50 µM | > 50 | > 50 | > 50 | > 50 µM | 32.8 | > 50 µM | 9.41 | 20.2 µM | 16 | > 50 µM | 22.2 | > 50 µM | 11.5 | 31 µM | 24.8 | > 50 µM
Cc1ccc(-c2nc3nc(-c4ccccc4)nc(N4CCCNCC4)c3o2)cc1 | 1.65 | 3.06 µM | 0.726 | 2.49 | 1.44 | 3.15 µM | 2.06 | 4.1 µM | 1.73 | 3.12 µM | 1.69 | 3.32 µM | 1.58 | 3.23 µM | 1.74 | 3.63 µM | 1.75 | 3.29 µM
C[N+]1=C(/C=C/c2ccc(O)c3ncccc23)C(C)(C)c2ccccc21 | 2.96 | 13.4 µM | 2.73 | 8.04 | 3.14 | > 100 µM | 3.55 | > 100 µM | 1.98 | 7.03 µM | 4 | 16 µM | 0.893 | 15.1 µM | 2.73 | 14.1 µM | 2.01 | 7.16 µM
CC(SC(=S)N1CCOCC1)c1cc2oc(=O)n(C)c2cc1Cl (centres undefined) | – | > 100 µM | – | > 100 | – | > 100 µM | – | > 100 µM | – | > 100 µM | – | > 100 µM | – | > 100 µM | – | > 100 µM | – | > 100 µM
C/C(O)=C(\N=O)C(=O)Nc1ccc(Cl)cc1Cl | – | > 100 µM | – | > 100 | – | > 100 µM | – | > 100 µM | – | > 100 µM | – | > 100 µM | – | > 100 µM | – | > 100 µM | – | > 100 µM
CCOCC(=O)N[C@H]1CCc2cc(OC)c(OC)c(OC)c2-c2ccc(OC)c(=O)cc21 | – | > 100 µM | – | 0.101 | – | > 52.7 µM | – | 17 µM | – | > 100 µM | – | > 100 µM | – | 19.1 µM | – | > 100 µM | – | > 100 µM
